For one assay, the target named is T1, EGFR L858R (Homo sapiens, UniProt P00533, L858R).
T1 construct: purchased SignalChem E10-122BG
Nature of the assay: Biochemical EGFR inhibition assay (Caliper mobility shift), EGFR L858R. As to conditions: read-out: Enz EGFR_L858R IC50.

A further assay concerns the target T2, EGFR (d746-750) (Homo sapiens, UniProt P00533, DEL746-750).
T2 construct: purchased SignalChem E10-122JG
Nature of the assay: Biochemical EGFR inhibition assay (Caliper mobility shift), EGFR (d746-750). As to conditions: read-out: Enz EGFR_Exon19-del746-750 IC50.

Assay [1] has as its target intracellular phosphorylation of EGFR (Tyr1068) in PC-9 cells (Ex19Del) (Homo sapiens, UniProt P00533, DEL746-750). As to the kind of experiment: PC-9 pEGFR AlphaLISA assay. It is filed as cell-based. As to conditions: 4 hours compound incubation, read-out: Ext pEGFR_PC-9 Ex19Del IC50.
[2] abbreviates: 1.0 mM ATP or ATP Km, room temperature (25° C.).

Where two headings read alike, the source gives them in different places.

T1 sequence (P00533 25-1210 L858R): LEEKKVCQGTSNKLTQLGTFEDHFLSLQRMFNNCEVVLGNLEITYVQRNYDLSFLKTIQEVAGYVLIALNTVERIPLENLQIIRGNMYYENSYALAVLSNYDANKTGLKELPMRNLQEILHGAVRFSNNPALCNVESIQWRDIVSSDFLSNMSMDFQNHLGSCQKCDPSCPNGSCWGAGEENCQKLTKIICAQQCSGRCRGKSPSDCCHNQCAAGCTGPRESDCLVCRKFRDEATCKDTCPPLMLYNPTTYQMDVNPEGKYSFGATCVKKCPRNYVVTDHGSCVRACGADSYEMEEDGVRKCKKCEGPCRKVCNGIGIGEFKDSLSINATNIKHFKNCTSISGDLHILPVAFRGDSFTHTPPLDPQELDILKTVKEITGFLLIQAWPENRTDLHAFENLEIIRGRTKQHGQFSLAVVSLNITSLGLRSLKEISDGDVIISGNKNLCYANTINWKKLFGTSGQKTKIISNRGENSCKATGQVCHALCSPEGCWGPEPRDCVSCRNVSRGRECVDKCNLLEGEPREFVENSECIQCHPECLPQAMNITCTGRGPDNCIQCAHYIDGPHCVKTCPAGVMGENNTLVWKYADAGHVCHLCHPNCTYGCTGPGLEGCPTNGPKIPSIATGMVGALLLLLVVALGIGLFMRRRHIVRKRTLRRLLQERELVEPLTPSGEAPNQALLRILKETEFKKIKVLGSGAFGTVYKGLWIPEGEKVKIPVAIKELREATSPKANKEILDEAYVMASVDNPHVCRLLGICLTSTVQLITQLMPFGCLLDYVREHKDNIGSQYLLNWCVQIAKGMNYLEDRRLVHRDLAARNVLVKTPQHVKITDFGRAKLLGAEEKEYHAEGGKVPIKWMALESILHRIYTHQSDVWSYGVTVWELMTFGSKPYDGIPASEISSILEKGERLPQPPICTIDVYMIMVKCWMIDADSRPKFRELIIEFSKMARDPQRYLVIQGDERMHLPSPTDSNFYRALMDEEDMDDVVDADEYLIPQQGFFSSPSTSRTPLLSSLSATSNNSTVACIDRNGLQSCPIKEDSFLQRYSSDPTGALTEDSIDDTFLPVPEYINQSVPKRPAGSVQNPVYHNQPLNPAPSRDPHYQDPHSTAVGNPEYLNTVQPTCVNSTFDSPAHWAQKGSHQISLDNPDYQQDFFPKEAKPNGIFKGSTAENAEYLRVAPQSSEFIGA
T2 sequence (P00533 with tags, fused parts or gaps DEL746-750 limits assumed): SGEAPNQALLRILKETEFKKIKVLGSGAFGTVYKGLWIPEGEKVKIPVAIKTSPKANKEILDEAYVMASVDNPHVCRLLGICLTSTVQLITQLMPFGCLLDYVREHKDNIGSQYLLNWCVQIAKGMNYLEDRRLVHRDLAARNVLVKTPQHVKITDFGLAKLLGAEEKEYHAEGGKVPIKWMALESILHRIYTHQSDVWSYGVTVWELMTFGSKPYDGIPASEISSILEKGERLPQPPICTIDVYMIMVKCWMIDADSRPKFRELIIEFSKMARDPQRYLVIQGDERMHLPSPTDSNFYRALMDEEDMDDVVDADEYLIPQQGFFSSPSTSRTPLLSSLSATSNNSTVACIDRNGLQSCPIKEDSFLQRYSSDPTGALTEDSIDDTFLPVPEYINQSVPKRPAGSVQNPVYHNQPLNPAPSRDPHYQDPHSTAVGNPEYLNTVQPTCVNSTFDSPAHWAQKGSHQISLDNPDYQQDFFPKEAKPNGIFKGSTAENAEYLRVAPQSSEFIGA
intracellular phosphorylation of EGFR (Tyr1068) in PC-9 cells (Ex19Del), sequence (P00533 with tags, fused parts or gaps DEL746-750): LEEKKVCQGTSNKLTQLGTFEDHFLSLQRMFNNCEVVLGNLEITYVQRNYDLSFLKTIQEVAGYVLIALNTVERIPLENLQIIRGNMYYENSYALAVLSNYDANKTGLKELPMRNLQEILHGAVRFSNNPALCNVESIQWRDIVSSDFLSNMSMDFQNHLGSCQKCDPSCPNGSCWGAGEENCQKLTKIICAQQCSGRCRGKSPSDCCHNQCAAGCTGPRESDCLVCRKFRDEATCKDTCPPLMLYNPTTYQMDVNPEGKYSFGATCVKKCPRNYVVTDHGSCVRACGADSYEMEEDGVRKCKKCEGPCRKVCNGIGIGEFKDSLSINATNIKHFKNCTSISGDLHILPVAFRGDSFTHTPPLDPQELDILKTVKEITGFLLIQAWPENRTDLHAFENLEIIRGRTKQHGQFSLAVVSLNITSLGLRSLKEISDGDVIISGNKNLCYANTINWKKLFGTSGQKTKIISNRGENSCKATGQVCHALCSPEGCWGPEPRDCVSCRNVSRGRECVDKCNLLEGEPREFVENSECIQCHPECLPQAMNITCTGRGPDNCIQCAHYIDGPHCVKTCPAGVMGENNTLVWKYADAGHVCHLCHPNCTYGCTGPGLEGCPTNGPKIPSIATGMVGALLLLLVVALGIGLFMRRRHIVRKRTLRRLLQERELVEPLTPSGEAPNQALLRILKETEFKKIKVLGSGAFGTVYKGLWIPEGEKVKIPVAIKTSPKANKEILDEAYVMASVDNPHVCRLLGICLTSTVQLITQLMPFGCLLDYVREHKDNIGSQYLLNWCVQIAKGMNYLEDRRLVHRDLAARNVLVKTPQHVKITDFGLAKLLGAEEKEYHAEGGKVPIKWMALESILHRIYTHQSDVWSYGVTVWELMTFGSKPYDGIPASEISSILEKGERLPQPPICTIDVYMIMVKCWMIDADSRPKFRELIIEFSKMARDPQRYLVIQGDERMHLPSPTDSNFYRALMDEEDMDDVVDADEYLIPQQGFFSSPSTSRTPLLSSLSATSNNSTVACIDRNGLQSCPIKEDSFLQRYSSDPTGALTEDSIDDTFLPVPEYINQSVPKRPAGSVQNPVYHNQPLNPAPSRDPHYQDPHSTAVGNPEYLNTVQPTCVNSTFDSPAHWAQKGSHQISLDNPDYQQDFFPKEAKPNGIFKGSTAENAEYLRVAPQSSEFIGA

`C[C@H](CN(C)C)Oc1cc(-c2cnn(C)c2)cc2ncnc(Nc3ccc4cccnc4c3F)c12` [Example 108, (R)-5-((1-(dimethylamino)propan-2-yl)oxy)-N-(8-fluoroquinolin-7-yl)-7-(1-methyl-1H-pyrazol-4-yl)quinazolin-4-amine]: the half-maximal inhibitory concentration (IC50) is 10.1 to 50 nM at EGFR L858R, below 10 nM at EGFR (d746-750) and 10.1 to 50 nM in assay [1].
For the compound `C[C@@H](Oc1cc(-c2cnn(C)c2)cc2ncnc(Nc3ccc4ncccc4c3F)c12)[C@@H]1COCCN1C` (single isomer, unassigned) [Example 125], the IC50 on EGFR L858R (setting [2]) is below 10 nM; on EGFR (d746-750) (setting [2]), below 10 nM; in assay [1], 10.1 to 50 nM.
As to `C[C@H](Oc1cc(-c2cnn(C)c2)cc2ncnc(Nc3ccc4ncccc4c3F)c12)[C@@H](C)O` (single isomer, unassigned) [Example 132, (2R,3S)-3-((4-((5-fluoroquinolin-6-yl)amino)-7-(1-methyl-1H-pyrazol-4-yl)quinazolin-5-yl)oxy)butan-2-ol or (2S,3R)-3-((4-((5-fluoroquinolin-6-yl)amino)-7-(1-methyl-1H-pyrazol-4-yl)quinazolin-5-yl)oxy)butan-2-ol], the IC50 at EGFR L858R (setting [2]) is below 10 nM; at EGFR (d746-750) (setting [2]) it was below 10 nM; in assay [1] it was at most 10 nM.
Take `C[C@H](CN(C)C)Oc1cc(-c2cnn(C)c2)cc2c1c(Nc1ccc3ncccc3c1F)nc[n+]2[O-]` (single isomer, unassigned) [Example 127]: the half-maximal inhibitory concentration (IC50) on EGFR L858R is below 10 nM; on EGFR (d746-750), below 10 nM; in assay [1], 10.1 to 50 nM.
As to `C[C@H](CN(C)C)Oc1cc(-c2cnn(C)c2)cc2ncnc(Nc3ccc4nnccc4c3F)c12` [Example 41, (R)—N-(5-((1-(dimethylamino)propan-2-yl)oxy)-7-(1-methyl-1H-pyrazol-4-yl)quinazolin-4-yl)-5-fluorocinnolin-6-amine], the half-maximal inhibitory concentration (IC50) was above 50.1 nM at EGFR L858R, 10.1 to 50 nM on EGFR (d746-750) and above 50.1 nM in assay [1].
Turning to `C[C@@H](Oc1cc(N2CCOCC2)cc2ncnc(Nc3ccc4ncccc4c3F)c12)C1COC1` [Example 61, (R)—N-(5-fluoroquinolin-6-yl)-7-morpholino-5-(1-(oxetan-3-yl)ethoxy)quinazolin-4-amine], the concentration for half-maximal inhibition (IC50) is below 10 nM on EGFR L858R, below 10 nM on EGFR (d746-750) and at most 10 nM in assay [1].
In the case of `C[C@@H](Oc1cc(N2CC3(COC3)C2)cc2ncnc(Nc3ccc4ncccc4c3F)c12)C1COC1` [Example 64], the half-inhibitory concentration (IC50) at EGFR L858R is below 10 nM; on EGFR (d746-750), below 10 nM; in assay [1], at most 10 nM.
On to `C[C@H](CN(C)C)Oc1cc(N2CCOC3(CC3)C2)cc2ncnc(Nc3ccc4ncccc4c3F)c12` [Example 91, (R)-5-((1-(dimethylamino)propan-2-yl)oxy)-N-(5-fluoroquinolin-6-yl)-7-(4-oxa-7-azaspiro[2.5]octan-7-yl)quinazolin-4-amine], for which the half-inhibitory concentration (IC50) is above 50.1 nM at EGFR L858R, 10.1 to 50 nM at EGFR (d746-750) and above 50.1 nM in assay [1].
As for `C[C@H](CN(C)C)Oc1cc(N2CCS(=O)(=O)CC2)cc2ncnc(Nc3ccc4ncccc4c3F)c12` [Example 81, (R)-4-(5-((1-(dimethylamino)propan-2-yl)oxy)-4-((5-fluoroquinolin-6-yl)amino)quinazolin-7-yl)thiomorpholine 1,1-dioxide], the IC50 (on EGFR L858R; on EGFR (d746-750); in assay [1]) was above 50.1 nM throughout.
As for `C[C@H](CN(C)C)Oc1cc(N2CC3(CNC3)C2)cc2ncnc(Nc3ccc4ncccc4c3F)c12` [Example 152, (R)-5-((1-(dimethylamino)propan-2-yl)oxy)-N-(5-fluoroquinolin-6-yl)-7-(2,6-diazaspiro[3.3]heptan-2-yl)quinazolin-4-amine], the results for the IC50 (on EGFR L858R; at EGFR (d746-750); in assay [1]) were below 10 nM, below 10 nM and 10.1 to 50 nM, respectively.
As for `C[C@H](CN(C)C)Oc1cc(-c2cnn(C)c2)cc2ncnc(Nc3c(F)cc4ncccc4c3F)c12` [Example 106, (R)—N-(5,7-difluoroquinolin-6-yl)-5-((1-(dimethylamino)propan-2-yl)oxy)-7-(1-methyl-1H-pyrazol-4-yl)quinazolin-4-amine], the IC50 at EGFR L858R was below 10 nM; on EGFR (d746-750), below 10 nM; in assay [1] it was at most 10 nM.
For the compound `C[C@H](CN(C)C)Oc1cc(-c2cnn(CC(F)F)c2)cc2ncnc(Nc3ccc4ncccc4c3F)c12` [Example 55, (R)-7-(1-(2,2-difluoroethyl)-1H-pyrazol-4-yl)-5-((1-(dimethylamino)propan-2-yl)oxy)-N-(5-fluoroquinolin-6-yl)quinazolin-4-amine], the IC50 was below 10 nM at EGFR L858R, below 10 nM at EGFR (d746-750) and at most 10 nM in assay [1].
As for `CN(C)CCOc1cc(-c2cnn(C)c2)cc2ncnc(Nc3ccc4ncccc4c3F)c12` [Example 34, 5-(2-(dimethylamino)ethoxy)-N-(5-fluoroquinolin-6-yl)-7-(1-methyl-1H-pyrazol-4-yl)quinazolin-4-amine], the IC50 at EGFR L858R was 10.1 to 50 nM; at EGFR (d746-750) it was below 10 nM; in assay [1] it was 10.1 to 50 nM.
Regarding `C[C@H](CN(C)C)Oc1cc(-c2cnn(C)c2)cc2ncnc(Nc3cnc4ccccc4c3)c12` [Example 14, (R)-5-((1-(dimethylamino)propan-2-yl)oxy)-7-(1-methyl-1H-pyrazol-4-yl)-N-(quinolin-3-yl)quinazolin-4-amine], the IC50 was below 10 nM on EGFR L858R, below 10 nM at EGFR (d746-750) and at most 10 nM in assay [1].
As to `C[C@H](CN(C)C)Oc1cc(-c2cnn(C)c2)cc2ncnc(Nc3ccc4c(ccc[n+]4[O-])c3F)c12` (single isomer, unassigned) [Example 129], the results for the IC50 (on EGFR L858R; on EGFR (d746-750); in assay [1]) were 10.1 to 50 nM, below 10 nM and 10.1 to 50 nM, respectively.
`CN1CCC[C@H](Oc2cc(-c3cnn(C)c3)cc3ncnc(Nc4ccc5ncccc5c4F)c23)C1` [Example 35, (S)—N-(5-fluoroquinolin-6-yl)-7-(1-methyl-1H-pyrazol-4-yl)-5-((1-methylpiperidin-3-yl)oxy)quinazolin-4-amine]: the IC50 on EGFR L858R is below 10 nM; at EGFR (d746-750) it was below 10 nM; in assay [1], at most 10 nM.
For `CN1CCC(Oc2cc(-c3cnn(C)c3)cc3ncnc(Nc4ccc5ncccc5c4F)c23)CC1` [Example 50, N-(5-fluoroquinolin-6-yl)-7-(1-methyl-1H-pyrazol-4-yl)-5-((1-methylpiperidin-4-yl)oxy)quinazolin-4-amine], the IC50 was below 10 nM on EGFR L858R, below 10 nM on EGFR (d746-750) and at most 10 nM in assay [1].
`COC1CCN(c2cc(O[C@H](C)C3COC3)c3c(Nc4ccc5ncccc5c4F)ncnc3c2)C1` (mixture of isomers) [Example 84, N-(5-fluoroquinolin-6-yl)-7-((R)-3-methoxypyrrolidin-1-yl)-5-((R)-1-(oxetan-3-yl)ethoxy)quinazolin-4-amine and N-(5-fluoroquinolin-6-yl)-7-((S)-3-methoxypyrrolidin-1-yl)-5-((R)-1-(oxetan-3-yl)ethoxy)quinazolin-4-amine]: the IC50 on EGFR L858R is below 10 nM; at EGFR (d746-750), below 10 nM; in assay [1], at most 10 nM.
Regarding `C[C@H](CN(C)C)Oc1cc(-c2cn[nH]c2)cc2ncnc(Nc3ccc4ncccc4c3F)c12` [Example 49, (R)-5-((1-(dimethylamino)propan-2-yl)oxy)-N-(5-fluoroquinolin-6-yl)-7-(1H-pyrazol-4-yl)quinazolin-4-amine], the results for the IC50 (on EGFR L858R; at EGFR (d746-750); in assay [1]) were below 10 nM, below 10 nM and at most 10 nM, respectively.

The values are drawn from patent US12662465B2, “EGFR inhibitors” (Blueprint Medicines Corporation, priority 2021, dated 2026).
